In PMC6026870, “Selective induction of cancer cell death by VDAC1‐based peptides and their potential use in cancer therapy” (Molecular Oncology, 2018):
“And” between values parts separate entries of the source, which are not always exact repeats. Equal values may be shown once.

Key:
[1] = test system: HeLa cells (HK‐I in cytosolic fraction); assay: Mitochondria‐bound HK detachment, cell fractionation and immunoblotting; format: cell-based, human; settings: peptide 3, 5, 10 μM, 3 h, digitonin […], immunoblot (Fig. 4E)
Method: Peptide‐induced HK detachment from mitochondria to the cytosol was also analyzed by immunoblotting. […] Samples were centrifuged at 12 000 g at 4 °C for 10 min, and the obtained supernatants (cytosolic fraction) and pellets (mitochondria) were analyzed by immunoblotting using anti‐HK‐I, anti‐VDAC1, and anti‐GAPDH antibodies, and then with secondary HRP‐conjugated antibodies.

[2] = test system: HeLa cells; assay: Cellular ATP levels, luciferase‐based assay (CellTiter‐Glo); format: cell-based, human; settings: 3 h, percentage of control, mean ± SE (n = 3) (Fig. 4F)
Method: Cellular ATP levels were estimated using a luciferase‐based assay (CellTiter‐Glo; Promega). […] ATP levels were assayed according to the manufacturer's protocol, and luminescence was recorded using an Infinite M1000 plate reader (Tecan, Männedorf, Switzerland).

[3] = test system: A549 cells; assay: Apoptosis, acridine orange/ethidium bromide staining; format: cell-based, human; settings: A549, 3 h; quantitation, mean ± SE (n = 3) (Fig. 5E)
Method: (§1) For PI and annexin V–FITC staining, A549 or MDA‐MB‐231 cells, untreated or treated with VDAC1‐based peptides, were collected (1500 g for 5 min), washed, and resuspended in 200 μL binding buffer (10 mM HEPES/NaOH (pH 7.4), 140 mM NaCl, and 2.5 mM CaCl2). Annexin V–FITC staining was performed according to the recommended protocol. Cells were then washed once with binding buffer and resuspended in 200 μL binding buffer, to which PI was added immediately before flow cytometric analysis. At least 10 000 events were collected, recorded on a dot plot, and analyzed by flow cytometer. Acridine orange/ethidium bromide staining was carried as described previously (Zaid et al., 2005), with cells visualized by fluorescence microscopy (Olympus LX2‐KSP, Tokyo, Japan), and images were captured with a CCD camera. About 200 cells were counted for each experiment.

[4] = test system: A549 cells; assay: Apoptosis, annexin V–FITC/PI staining and flow cytometry; format: cell-based, human; settings: A549, 3 h, serum‐free, 37 °C (Figs 5F,G; also MDA‐MB‐231, Fig. S2B,C)
Method: as §1

[5] = test system: A549 cell xenograft; assay: Subcutaneous xenograft mouse model, tumor growth; format: in vivo; settings: A549 s.c. xenograft, nude mice; intratumoral 40 or 60 μM, 20 μL per tumor every two days; 20 days; vs HBSS control; n = 5
Method: (§2) U‐87MG cells (3 × 10^6/mouse), A549 cells (5 × 10^6/mouse), or MDA‐MB‐231 cells (3 × 10^6/mouse) were inoculated subcutaneously (s.c.) into the hind leg flanks of athymic 8‐week‐old male nude mice (Envigo, Huntingdon, UK). Tumor size was measured using a digital caliper and volume was calculated, and when reached 50–100 mm^3 for each tumor type, mice were randomly divided into two groups (five mice per group). […] The xenografts were injected (two points, 20 μL per tumor) every two days. Beginning on the day of inoculation, mouse weight and tumor volume were monitored twice a week. Experiments were terminated after 14, 29, or 20 days for U‐87MG‐, MDA‐MB‐231‐, or A549‐based tumors, respectively. The mice were sacrificed and tumors were excised. Half of each tumor was fixed in 4% buffered formaldehyde, paraffin‐embedded, and processed for IHC, while the second half was frozen in liquid nitrogen for immunoblotting and qPCR analyses. These experimental protocols were approved by the Institutional Animal Care and Use Committee of Ben‐Gurion University.

[6] = test system: MDA‐MB‐231 cell xenograft; assay: Subcutaneous xenograft mouse model, tumor growth; format: in vivo; settings: MDA‐MB‐231 s.c. xenograft, nude mice; intratumoral 40 or 60 μM, 20 μL per tumor every two days; 29 days; vs HBSS control; n = 5
Method: as §2

[7] = test system: U‐87MG cell xenograft; assay: Subcutaneous xenograft mouse model, tumor growth; format: in vivo; settings: U‐87MG s.c. xenograft, nude mice; intratumoral 40 or 60 μM, 20 μL per tumor every two days; 14 days; vs HBSS control; n = 5
Method: as §2

[8] = test system: A549‐, MDA‐MB‐231‐, and U‐87MG‐derived tumors; assay: qPCR of excised xenograft tumors; format: in vivo, mouse
Method: as §2
Total RNA was isolated from untreated and peptide‐treated tumors (three mice each) using an RNeasy Mini Kit (Qiagen, Hilden, Germany) according to the manufacturer's instructions. Total RNA quality was analyzed using the Agilent RNA 6000 Nano Kit. […] The levels of target genes were normalized relative to β‐actin mRNA levels. Samples were amplified by a 7300 Real‐Time PCR System (Applied Biosystems) for denaturation step of 5 min at 95 °C and 40 cycles using the following PCR parameters: 95 °C for 15 s, 60 °C for 1 min, and 72 °C for 1 min. The copy numbers for each sample were calculated by the CT‐based calibrated standard curve method. The mean fold changes (±SE) of three replicates were calculated.

[9] = test system: A549, MDA‐MB‐231 and U‐87MG xenografts; assay: TUNEL assay on xenograft tumor sections; format: in vivo, mouse; settings: TUNEL staining of paraffin sections; no TUNEL‐positive cells in control HBSS‐TTs (Fig. 7A–C)
Method: as §2
Paraffin‐embedded‐fixed tumor sections were processed for a TUNEL assay using the DeadEnd Fluorometric TUNEL system according to the manufacturer's instructions. […]

[10] = treated tumors vs control, n = 3 (Fig. 7D,E)

Q: Which results are given for `CC[C@H](C)[C@H](NC(=O)[C@H](Cc1ccc(O)cc1)NC(=O)[C@@H]1CCCN1C(=O)[C@H](CCCNC(=N)N)NC(=O)[C@H](Cc1c[nH]cn1)NC(=O)[C@@H](CO)NC(=O)[C@@H](Cc1c[nH]c2ccccc12)NC(=O)[C@H](NC(=O)[C@@H](Cc1c[nH]c2ccccc12)NC(=O)[C@@H](CCC(=O)O)NC(=O)[C@@H](CCCCN)NC(=O)[C@@H](CCCCN)NC(=O)[C@@H](CC(C)C)NC(=O)[C@@H](CCC(=O)O)NC(=O)[C@H](NC(=O)[C@@H](C)NC(=O)[C@H](NC(=O)[C@@H](CC(N)=O)NC(=O)[C@@H](CC(C)C)NC(=O)[C@@H](C)NC(=O)[C@@H](Cc1c[nH]c2ccccc12)NC(=O)[C@H](NC(=O)[C@@H](C)NC(=O)CNC(=O)[C@@H](CC(N)=O)NC(=O)[C@@H](CO)NC(=O)[C@@H](CC(N)=O)NC(=O)[C@@H](CCCCN)NC(=O)[C@@H](Cc1c[nH]c2ccccc12)NC(=O)[C@H](NC(=O)[C@@H](Cc1c[nH]c2ccccc12)NC(=O)[C@H](N)CCCCN)[C@H](C)O)[C@H](C)O)C(C)C)[C@H](C)O)[C@H](C)O)C(=O)N[C@@H](C)C(=O)N[C@@H](Cc1c[nH]cn1)C(=O)O` [R‐Tf‐D‐LP4]?
A: increase in HK in the cytosolic fraction [1]: about twofold; decrease of cellular ATP levels [2]: about 40%; apoptotic cell death (acridine orange/ethidium bromide) [3]: over 70%; apoptotic cell death (annexin V–FITC and PI staining) [4]: over 90%; decrease in tumor volume [5]: ~ 80% and 70–80%; decrease in tumor volume [6]: ~ 80% and 70–80%; decrease in tumor volume [7]: ~ 80% and 70–80%; decrease in expression of Glut‐1, HK‐I and GAPDH ([8]; A549, MDA‐MB‐231, U‐87MG tumors vs control (Fig. 8)): three‐ to fourfold; p53 expression levels, elevation ([8]; A549‐, MDA‐MB‐231‐, U‐87MG‐derived tumors, n = 3 (Fig. 7D–F)): over two‐ to fivefold; Caspase‐8 overexpression [8, 10]: two‐ to threefold; SMAC/Diablo expression levels, increase [8, 10]: two‐ to fivefold; caspase‐3 overexpression [8, 10]: two‐ to threefold; Cyto c expression, increase ([8]; treated tumors vs control, n = 3 (Fig. 7D,F)): two‐ to fourfold; TUNEL‐positive cells in treated tumors [9]: the majority of the cells were TUNEL‐positive
